row,SMILES,melting point
1,"CC(C#CC1CC(Oc2ccc(C(F)(F)F)cc2)C1)N(O)C(N)=O (single isomer, unassigned; (+))",113 to 114 °C
2,Cc1cccc2nc(C)n(-c3ccccc3)c12,107 to 109 °C
3,COc1ccc(-c2c(Cl)c(CCl)nc3sc4c(c23)CCN(Cc2ccccc2)C4)cc1,194 to 195 °C
4,CCN(CC)C(=O)COC(=O)CCNC(=O)[C@H](Cc1ccc(-c2ccccc2)cc1)NCP(=O)(Oc1ccccc1)Oc1ccccc1,68 to 74 °C
5,O=[N+]([O-])C(=Cc1cccs1)C1=NCCN1Cc1ccc(Cl)nc1,189 to 190 °C
6,COc1ccc(CNC(=O)Nc2ccc(CN3C(=O)[C@H]4CCC[C@H]4N(C(=O)CN4C(=O)c5ccccc5C4=O)c4ccccc43)cc2)cc1 (relative stereo),156 to 158 °C
7,Cn1c(CO)cc2ccccc21,92.8 °C
8,O=C(CC(O)=S)c1ccccc1,103 to 105 °C
9,CC(C)(C)N(C(=O)COc1nnc(C(F)(F)F)s1)c1ccc(Cl)cc1,82 °C
10,CC1(C)CCc2c(N3CCOCC3)nc3sc4c(NCc5ccc(S(N)(=O)=O)cc5)ncnc4c3c2C1,258 to 260 °C
11,O=C1c2ccccc2C(=O)N1CC(Br)(c1ccccc1)C(F)Br (centres undefined),163 to 164 °C
12,N#Cc1csc(N2C(=O)C(Cc3ccccc3)NC2=S)n1 (centres undefined),214 to 216 °C
13,CCN1CCN(CCCC#Cc2cn(Cc3ncc(C)c(OC)c3C)c3nc(N)nc(Cl)c23)CC1,142 to 144 °C
14,CC(C)(O)c1ccc(CNC(=O)c2cccnc2Oc2ccc3ncsc3c2)cc1,195 to 197 °C
15,COc1ccc(C(=O)N2CCc3cc(OCc4ccccc4)ccc3C2)cc1OC,126 to 127 °C
16,CCCCCCCCCCNC(=O)c1cc(C(=O)NCCCCCCCCCC)cc(N(CCCC(=O)OCC)CCCC(=O)OCC)c1,75 to 77 °C
17,CC(C)CCC(=O)Nc1c(C(O)(C(F)(F)F)C(F)(F)F)ccc2ccccc12,62 to 63 °C
18,Nc1cccc(-c2ccc(CCN3C4CCC3CC(N)C4)cc2)n1 (centres undefined),> 300 °C
19,O=C1N=c2ccc(Cl)cc2=N1,320 °C
20,Nc1ccc(-c2cc(OCCCCCC(=O)O)nc(-c3ccccc3)c2)cc1,131 to 133 °C
21,Cn1nc(N=Cc2ccccc2)nc1NCC(O)COc1cccc(CN2CCCCC2)c1 (centres undefined),53 to 57 °C

row,SMILES,melting point
1,CC(C)C(=O)NCc1ccc(NC(=O)/C=C/c2cnn(C)c2-c2ccc(F)cc2)cc1,258 to 259 °C
2,CC1(C)CN(c2ncc(C(=O)N(CC3CC3)c3cc(C(F)(F)F)ccc3F)c(N)n2)C(=O)N1,188 to 189 °C
3,O=[N+]([O-])c1ccc(Oc2ccc(C3(c4ccc(Oc5ccc([N+](=O)[O-])c(O)c5)cc4)C4CC5CC(C4)CC3C5)cc2)cc1O,248 to 250 °C
4,c1ccc(C(c2ccccc2)(c2ccccc2)N2CCCC2)cc1,126 °C
5,Cc1cc(C)c(C(=O)P2(=O)Oc3ccccc3-c3ccccc32)c(C)c1 (centres undefined),109 °C
6,COc1cccc(CNc2ncnc3c2sc2nc(N(C)C)c4c(c23)CC(C)(C)OC4)c1OC,89.9 to 90.7 °C
7,O=C(O)CCCC#CCN1C(=O)c2ccccc2C1=O,120 to 122 °C
8,Cn1cncc1C(O)(c1ccc2c(c1)c(-c1cccc(Cl)c1)cc(=O)n2C)c1nccs1 (centres undefined),246 °C
9,CC(C)(O)Cc1nc2cnc3ccccc3c2s1,155 to 157 °C
10,O=C(O)c1cccc2c1CC(N(CCCc1c[nH]c3c(F)cc(F)cc13)C1CCC1)CO2 (centres undefined),130 to 131 °C
11,NC1NC=CN1c1ccncc1 (centres undefined),190 °C
12,CCCC1CCC2C3CCc4cc(O)ccc4C3CCC12C (centres undefined),130 to 131 °C
13,CC1(C)CCC(C)(C)c2cc(-c3cc(-c4ccc(C(=O)O)cc4)ccc3OCCCNC3CC3)ccc21,192 °C
14,FC(F)(F)Oc1cccc(-c2ccc3nnn(Cc4ccc5ncccc5c4)c3n2)c1,140 to 142 °C
15,Cc1ccn(-c2cc(Nc3c(Cl)cc(Cl)cc3Cl)nc(C)n2)n1,245 to 247 °C
16,O=C1Nc2ccccc2CN(c2ccccc2)N1,283 to 286 °C
17,CC(C)S(=O)(=O)C(C#N)=CC=CN(C)C,102 to 104 °C
18,CN1CC(c2ccc(Nc3cc(-c4cccc(N5Cc6cc(C(C)(C)C)ccc6C5=O)c4CO)cn(C)c3=O)nc2)C1,201 to 202 °C
19,COc1cc(C)c(C(=O)c2c(F)ncc(C)c2I)c(OC)c1OC,140 to 141 °C
20,CC(C)(C#N)c1cc(-n2cncc2C#N)cc(C(C)(C)C#N)c1,88 to 90 °C
21,CCCCNC(=O)CCC(=O)O,93.5 to 94.5 °C

row,SMILES,melting point
1,Cc1ncc(-c2ccccc2)c(-c2ccc3c(c2)NC(=O)CO3)n1,229 °C
2,CC(NC1=NS(=O)(=O)c2ccc(Cl)cc2N1)C(C)(C)C (centres undefined),> 220 °C
3,OCc1cc(Br)cnc1Cl,86.7 to 87.5 °C
4,CC(CCCC(C)(C)O)C1CCC2C3CC=C4CC(O)CC(O)C4(C)C3CCC12C (centres undefined),170 to 172 °C
5,O=C(O)C1CNc2cc(C(F)(F)F)ccc2O1 (centres undefined),105 to 107 °C
6,N=C(NNC(=O)c1ccccc1O)C(Cl)(Cl)Cl,168 to 169 °C
7,CC1CCc2ccc(OCC(O)CNC(C)(C)C)cc2O1 (centres undefined),92 to 94 °C
8,Fc1ccc(Nc2nnc(Cc3ccncc3)c3ccccc23)cc1Cl,185 to 187 °C
9,CCCc1cc(O)nc(SCC(N)=O)n1,200 to 203 °C
10,CCC1(O)CCC2(C)C(CCC3C4CCC(C(C)=O)C4(C)CC(=O)C32)C1 (centres undefined),129 °C
11,NC(=O)c1ccc(C(F)(F)F)c(Br)c1,148 to 150 °C
12,CCO[C@H]1CCN(C(=O)c2cc(-c3ccccc3)c(=O)n3c2-c2cc(Cl)ccc2CC3)C1,134 to 136 °C
13,CCOC(=O)c1ncn(-c2nncs2)c1Cl,184 to 185 °C
14,C#CCn1cc(C=O)c([N+](=O)[O-])c1,120 °C
15,O=C(CC1CCOC1=O)c1ccccc1 (centres undefined),77 to 79 °C
16,Nc1nc(Cl)nc(Cl)c1[N+](=O)[O-],161 to 162 °C
17,COc1c(N2CC(O)C2)c(F)cc2c(=O)c(C(=O)O)cn(C3CC3)c12,246 to 250 °C
18,Fc1ccc(-n2ccc3cc(-c4ccccn4)ccc32)cc1,119 to 121 °C
19,NC(=O)CCN1CCCCC1,105 to 107 °C

# The next lines start with the values.
row,melting point,SMILES
1,177 to 178 °C,Cc1c(NC(=O)CC(C)(C)C)cc2c(c1C)OC(C)(C)C2(O)Cc1ccc(C(C)C)cc1 (centres undefined)
2,211 to 213 °C,CCCc1ccc(-c2cc(NC(=O)C3Cc4ccccc4C3)n[nH]2)cc1
3,100 to 102 °C,CCCCCNC(=O)N(C)c1cccc(-c2ccc(CCC(=O)O)cc2)c1
4,78 to 80 °C,O=C(Cl)C=Cc1ccc(Cl)cc1
5,89 to 92 °C,COC(=O)CCc1cc2cc(Cl)ccc2n1S(=O)(=O)c1ccc(Cl)cc1
6,141 to 144 °C,Cc1c(CCN(C)C(=O)OC(C)(C)C)c2cc(S(=O)(=O)c3ccc(C(F)(F)F)cc3)ccc2n1C
7,183 to 187 °C,O=C1c2ccc(Cl)cc2C(=O)N1c1ccc([N+](=O)[O-])cc1CI
8,153 to 154 °C,CN(C)C=Cc1ncc([N+](=O)[O-])n1CCOC(=O)c1ccccc1
9,206 to 207 °C,Cc1cc(NC(=O)NNc2cccc(C#N)c2)ccc1N1CCCCC1=O
10,108 to 110 °C,CCCC(=O)c1cnc2c(N)cccc2c1Nc1ccccc1C
11,159 to 160 °C,CCOc1cc(C=O)ccc1OCc1nc(-c2ccco2)oc1C
12,164 to 165 °C,COc1ccc(CS(=O)(=O)CC(=O)O)cc1O
13,108 to 111 °C,CS(=O)(=O)c1ccc(-c2cnn(CC(F)(F)F)c(=O)c2SCc2ccccc2)cc1
14,161 to 163 °C,CN1CC(c2ccc(S(C)(=O)=O)cc2)=C(c2ccc(Br)cc2)C1=O
15,143 °C,CCOC(=O)C1=C(C)NC(CO)=C(C(=O)OCC)C1c1ccccc1Cl (centres undefined)
16,194 to 195 °C,NCc1ccsc1CC(=O)O
17,174 to 176 °C,CN(C1CCN(C(=O)OC(C)(C)C)CC1)S(=O)(=O)c1ccc(Nc2nccc(Nc3ccc(F)cc3)n2)cc1
18,156 to 157 °C,CC(NC(=O)NO)c1ccc2ccccc2c1 (centres undefined)
19,200 °C,COc1ccc(C(=O)c2cccc(F)c2)cc1C(=O)O

row,melting point,SMILES
1,82.5 to 84 °C,CC(C)N(CCNC(=O)N1CCCC(S(=O)(=O)c2ccccc2)C1)C(C)C (centres undefined)
2,116 to 118 °C,CC(C)(C)OC(=O)CN(CCO)C(=O)c1cc([N+](=O)[O-])ccc1F
3,153 to 155 °C,CC(C)(NC(=O)OCc1ccccc1)C(=O)Nc1ccc([N+](=O)[O-])cc1C(=O)c1ccccc1F
4,148 °C,CCCCCC1OCc2cc(C(=O)O)ccc2O1 (centres undefined)
5,144 to 146 °C,Nc1cc(N2CCNCC2)ccc1S(=O)(=O)c1ccc(F)cc1
6,154 to 155 °C,COCOc1ccccc1-c1nc(N)c(C#N)c(-c2cccc([N+](=O)[O-])c2)c1C
7,97 °C,CCOC(=O)CC(=O)NS(=O)(=O)c1ccc([N+](=O)[O-])cc1
8,160 to 162 °C,COc1ccc(S(=O)(=O)NCCc2ccc(CC(=O)O)cc2)cc1
9,202 to 206 °C,N#CCc1ccc(NS(=O)(=O)c2cccc(Cl)c2Cl)cc1
10,110 °C,CS(=O)(=O)Cc1c(C(=O)c2cnoc2C2CC2)ccc(S(C)(=O)=O)c1Cl
11,> 260 °C,O=C1CCC2=C1C(c1cccc([N+](=O)[O-])c1)C1=C(CCCS1)N2 (centres undefined)
12,57 °C,CCOCCOc1ccc(C(=O)CN(Cc2ccccc2)Cc2ccccc2)cc1C(=O)OC
13,219 to 220 °C,O=C(Cc1ccccc1)Nc1ccnc(NC(=O)NCc2ccccn2)c1
14,117 to 118 °C,CN(C(=O)C(F)(F)F)C(C(=O)O)c1ccc(Cl)cc1 (centres undefined)
15,87 to 90 °C,CS(=O)(=O)OCC1CCN(C(=O)c2ccccc2)CC1
16,213 to 217 °C,COc1ccc(S(=O)(=O)Nc2cccc(C)c2NC(=O)c2ccncc2)cc1
17,178 to 180 °C,Cc1nc(-n2cc(C(=O)NCc3ccccc3)nn2)sc1C(=O)NCc1ccccc1
18,183 to 184 °C,CCC(CC)N(O)C(=O)Nc1ccc(-c2ccccc2)cc1
19,209 to 211 °C,COc1cc(C(=O)C(=O)c2ccccc2)c(OC)cc1C(=O)C(=O)c1ccccc1
